≈ marks a conversion by molar mass, not a printed value. Read-outs that look alike come from different tables or passages of the source.
How the values were obtained:
Test in all cases: Agar dilution antibacterial test (MIC)
Format in all cases: cell-based
[1] = system: Acom AC12
Procedure: (§1) Fresh overnight cultures of test bacteria were diluted to approximately 1x(10)4 cells/microliter and applied in one microliter volumes to the surfaces of the agar plates. The innoculated plates were incubated overnight at 35° C. in ambient air. Minimum inhibitory concentration (mic) endpoints were recorded as the lowest antibiotic concentrations in micrograms per milliliter that inhibited the development of visible growth on the plates. The following summarizes the results of such tests with the compounds of the examples listed above.

[2] = system: Citro CF17
Procedure: as §1

[3] = system: Enterobacter aerogenes C32
Procedure: as §1

[4] = system: Enterobacter aerogenes EB17
Procedure: as §1

[5] = system: Enterobacter cloacae 265A
Procedure: as §1

[6] = system: Enterobacter cloacae EB5
Procedure: as §1

[7] = system: Enterococcus faecalis 2041
Procedure: as §1

[8] = system: Enterococcus faecium X66
Procedure: as §1

[9] = system: Escherichia coli EC14
Procedure: as §1

[10] = system: Escherichia coli N10
Procedure: as §1

[11] = system: Escherichia coli TEM
Procedure: as §1

[12] = system: Haemophilus influenzae 76
Procedure: as §1

[13] = system: Haemophilus influenzae C.L.
Procedure: as §1

[14] = system: Klebsiella pneumoniae KAE
Procedure: as §1

[15] = system: Klebsiella pneumoniae X26
Procedure: as §1

[16] = system: Klebsiella pneumoniae X68
Procedure: as §1

[17] = system: Morg morg PR15
Procedure: as §1

[18] = system: Proteus incon PR33
Procedure: as §1

[19] = system: Proteus rett C24; details: Proteus rett C24
Procedure: as §1

[20] = system: Salmonella 1335
Procedure: as §1

[21] = system: Salmonella X514
Procedure: as §1

[22] = system: Serratia SE3
Procedure: as §1

[23] = system: Serratia X99
Procedure: as §1

[24] = system: Shig sonn. N9
Procedure: as §1

[25] = system: Staphylococcus aureus NRRL X1.1
Procedure: as §1

[26] = system: Staphylococcus aureus S13E
Procedure: as §1

[27] = system: Staphylococcus aureus V41
Procedure: as §1

[28] = system: Staphylococcus aureus X400
Procedure: as §1

[29] = system: Staphylococcus epidermidis 222
Procedure: as §1

[30] = system: Staphylococcus epidermidis EPI270
Procedure: as §1

[31] = system: Staphylococcus pneumoniae Park 1
Procedure: as §1

[32] = system: Staphylococcus pyogenes C203
Procedure: as §1

[33] = Klebsiella aerogenes, read-out: MIC

With N[C@@H](C(=O)N[C@@H]1C(=O)N2C(C(=O)O)=C(C(F)(F)F)CC[C@H]12)c1ccc(F)cc1 [Compound 3, [6R,7S]-7-β-[D-α-(amino)-4-fluorophenylacetylamino]-3-trifluoromethyl-1-carba-1-dethia-3-cephem-4-carboxylic acid] the MIC ([1]; read-out: MIC) was 64 µg/mL (≈ 159 µM), the MIC ([2]; read-out: MIC) was 8 µg/mL (≈ 19.9 µM) and the MIC [3, 33] was 8 µg/mL (≈ 19.9 µM). For the same compound, the MIC [4, 33] was 8 µg/mL (≈ 19.9 µM), the MIC ([5]; read-out: MIC) was 8 µg/mL (≈ 19.9 µM) and the MIC ([6]; read-out: MIC) was 8 µg/mL (≈ 19.9 µM). The MIC ([7]; read-out: MIC) was 32 µg/mL (≈ 79.7 µM), the MIC ([8]; read-out: MIC) was 32 µg/mL (≈ 79.7 µM) and the MIC ([9]; read-out: MIC) was 1 µg/mL (≈ 2.49 µM). It also gave an MIC ([10]; read-out: MIC) of 4 µg/mL (≈ 9.97 µM), an MIC ([11]; read-out: MIC) of 1 µg/mL (≈ 2.49 µM) and an MIC ([12]; read-out: MIC) of 1 µg/mL (≈ 2.49 µM). It also gave an MIC ([13]; read-out: MIC) of 0.5 µg/mL (≈ 1.25 µM), an MIC ([14]; read-out: MIC) of 8 µg/mL (≈ 19.9 µM) and an MIC ([15]; read-out: MIC) of 0.5 µg/mL (≈ 1.25 µM). For the same compound, the MIC ([16]; read-out: MIC) was 1 µg/mL (≈ 2.49 µM), the MIC ([17]; read-out: MIC) was 16 µg/mL (≈ 39.9 µM) and the MIC ([18]; read-out: MIC) was 8 µg/mL (≈ 19.9 µM). For the same compound, the MIC ([19]; read-out: MIC) was 8 µg/mL (≈ 19.9 µM), the MIC ([20]; read-out: MIC) was 2 µg/mL (≈ 4.98 µM) and the MIC ([21]; read-out: MIC) was 0.5 µg/mL (≈ 1.25 µM). The MIC ([22]; read-out: MIC) was 32 µg/mL (≈ 79.7 µM), the MIC ([23]; read-out: MIC) was 16 µg/mL (≈ 39.9 µM) and the MIC ([24]; read-out: MIC) was 2 µg/mL (≈ 4.98 µM). It also gave an MIC ([25]; NRRLX1.1, read-out: MIC) of 1 µg/mL (≈ 2.49 µM), an MIC [26] of 32 µg/mL (≈ 79.7 µM) and an MIC ([27]; read-out: MIC) of 16 µg/mL (≈ 39.9 µM). For the same compound, the MIC ([28]; read-out: MIC) was 64 µg/mL (≈ 159 µM), the MIC ([29]; read-out: MIC) was 4 µg/mL (≈ 9.97 µM) and the MIC ([30]; read-out: MIC) was 4 µg/mL (≈ 9.97 µM). The MIC ([31]; PARK1, read-out: MIC) was 0.25 µg/mL (≈ 0.623 µM) and the MIC ([32]; read-out: MIC) was 0.06 µg/mL (≈ 0.15 µM).

With CCS(=O)(=O)Nc1cccc(C(N)C(=O)N[C@@H]2C(=O)N3C(C(=O)O)=C(C(F)(F)F)CC[C@H]23)c1 (stereo partly shown) [Compound 6] the MIC [1] was 64 µg/mL (≈ 130 µM), the MIC [2] was 32 µg/mL (≈ 65.2 µM) and the MIC [3] was 16 µg/mL (≈ 32.6 µM). It also gave an MIC [4] of 16 µg/mL (≈ 32.6 µM), an MIC [5] of 32 µg/mL (≈ 65.2 µM) and an MIC [6] of 32 µg/mL (≈ 65.2 µM). It also gave an MIC [7] of 32 µg/mL (≈ 65.2 µM), an MIC [8] of 64 µg/mL (≈ 130 µM) and an MIC [9] of 1 µg/mL (≈ 2.04 µM). It also gave an MIC [10] of 8 µg/mL (≈ 16.3 µM), an MIC [11] of 1 µg/mL (≈ 2.04 µM) and an MIC [12] of 4 µg/mL (≈ 8.16 µM). The MIC [13] was 1 µg/mL (≈ 2.04 µM), the MIC [14] was 32 µg/mL (≈ 65.2 µM) and the MIC [15] was 0.25 µg/mL (≈ 0.51 µM). It also gave an MIC [16] of 1 µg/mL (≈ 2.04 µM), an MIC [17] of 16 µg/mL (≈ 32.6 µM) and an MIC [18] of 16 µg/mL (≈ 32.6 µM). It also gave an MIC [19] of 32 µg/mL (≈ 65.2 µM), an MIC [20] of 8 µg/mL (≈ 16.3 µM) and an MIC [21] of 1 µg/mL (≈ 2.04 µM). It also gave an MIC [22] of 128 µg/mL (≈ 261 µM), an MIC [23] of 64 µg/mL (≈ 130 µM) and an MIC [24] of 4 µg/mL (≈ 8.16 µM). It also gave an MIC [25] of 4 µg/mL (≈ 8.16 µM), an MIC [26] of 32 µg/mL (≈ 65.2 µM) and an MIC [27] of 8 µg/mL (≈ 16.3 µM). For the same compound, the MIC [28] was 32 µg/mL (≈ 65.2 µM), the MIC [29] was 4 µg/mL (≈ 8.16 µM) and the MIC [30] was 8 µg/mL (≈ 16.3 µM). The MIC [31] was 0.125 µg/mL (≈ 0.255 µM) and the MIC [32] was 0.06 µg/mL (≈ 0.122 µM).
